Measured values taken from patent US20220184222A1, “BICYCLE TOXIN CONJUGATES AND USES THEREOF” (BicycleTx Limited, priority 2019, published 2022).
Starred links: 1 amine or outer side, 2 acyl side, 3 side chain; linkers in the order of their positions; H or OH if unused. Non-standard residues stand in square brackets, D forms with d. Residues, ends and D or L forms follow the SMILES beside them. *: point of attachment. Dolaproine = CO[C@@H]([C@@H]1CCCN1)[C@@H](C)C(=O)O; Dil = CC[C@H](C)[C@H](NC)[C@@H](CC(=O)O)OC; PABC = O=C(OCc1ccc(N[*:1])cc1)[*:2]; X1 = O=C(CCCC(=O)*)ON1C(=O)CCC1=O; X2 = C[C@@H](N*)[C@@H](O)c1ccccc1; Cit = NC(=O)NCCC[C@H](N)C(=O)O; NMeV = CN[C@H](C(=O)O)C(C)C

Assays:
Panc033 = test: PDAC PDX Panc033 xenograft efficacy (Example 5); assay type: in vivo, NSG mice; settings: 3 mg/kg intravenously weekly, 4-week treatment period
Protocol: BT5528 and Vehicle were prepared as described in the examples above, and tested in treatment of Pancreatic Ductal Adenocarcinoma (PDAC) in PDX models. PDX models effectively capture patient responses to oncology therapy in a heterogeneous cohort of patients with solid tumors with 80-100% correlation between the PDX and patient response (Izumchenko et al. 2017)
Pancreatic ductal adenocarcinoma patient derived xenograft tumors (PDAC PDX; Panc033 and Panc163) were implanted subcutaneously from source tumors into the flank of NSG mice. Tumor bearing animals were randomized to receive intravenously a weekly dosing of vehicle or 3 mg/kg BT5528. Tumor sizes were monitored by caliper measurements.

CTG-0363 = test: Champions TumorGraft NSCLC PDX efficacy, model CTG-0363; assay type: in vivo, Mus musculus
Protocol: (§1) Mice were implanted subcutaneously into the left flank with tumor fragments from one of the various models. After tumors grew to an average of 150-300 mm^3, mice were treated by IV administration Q7Dx4 (n=2) with vehicle or 3 mg/kg of BT5528. Effects on tumor growth were evaluated by measuring percent tumor growth inhibition (% TGI), and the number of complete responders (CR), partial responders (PR), and tumor-free survivors (TFS). Tolerability was assessed by body weight loss, lethality, and clinical signs of adverse treatment-related side effects. Tumor volumes and body weights were measured twice a week.
(§2) Dosing solutions of BT5528 […] were pre-formulated. These dosing solutions were stored at −80° C. in the dark. On each day of dosing, a frozen aliquot of each test agent was thawed, stored at 2-8° C. and used for dosing.
(§3) The animals used in this study are described below: • Species: Mus musculus • Strain: Athymic Nude-Foxn1^nu (immune-compromised) • Source: Envigo (Indianapolis, Ind., USA) • Number of animals per group: 2 • Age and sex: At least 6-8 weeks of age at start of dosing, female • Weight: At least 18 grams at start of dosing • Acclimation period: 3 days
(§4) Stock mice were implanted with tumor cells from Champions TumorGraft® models CTG-0160, CTG-0170, CTG-0178, CTG-0192, CTG-0363, CTG-0808, CTG-0838, CTG-0848, CTG-1212, CTG-1502, CTG-1535, CTG-2011, CTG-2393, CTG-2539 or CTG-2540. After the tumors reached 1000-1500 mm^3, they were harvested and the tumor fragments (approximately 5×5×5 mm^3) were implanted SC in the left flank of the female study mice. Each animal was implanted with a specific passage lot and documented. Tumor growth was monitored twice a week using digital calipers and the tumor volume (TV) was calculated using the formula (0.52×[length×width^2]). When the TV reached an average volume of 150-300 mm^3, animals were matched by tumor size and assigned into Vehicle Control and treatment groups (n=2/group) and dosing was initiated on Day 0. After the initiation of dosing on Day 0, animals were weighed twice per week using a digital scale and TV was measured twice per week and also on the final day of study. The study was completed when the mean tumor volume of Vehicle Control reached 1500 mm^3 or up to Day 60, whichever occurred first.
(§5) Beginning on Day 0, animals were observed daily and weighed twice weekly using a digital scale; data including individual and mean gram weights, mean percent weight change versus Day 0 (% vD0) were recorded for each group and % vD0 plotted at study completion. […] Treatment resulting in a mean % vD0>20% and/or >10% mortality was considered above the maximum tolerated dose. Maximum mean % vD0 (weight nadir) for each treatment group was reported at study completion.
(§6) Inhibition of tumor growth was determined by calculating the percent TGI (100%×[1−(final MTV−initial MTV of a treated group)/(final MTV−initial MTV of the control group)]). Treatment started on Day 0.
(§7) Additional endpoints used to evaluate efficacy were: the number of complete responders (CR), partial responders (PR), and tumor-free survivors (TFS). PRs were considered exclusive of CRs, as were TFS.
(§8) Statistical analyses of anti-tumor efficacy were performed using one-way ANOVA followed by Dunnett's multiple comparisons test (GraphPad Prism version 8.2.0). Significant p-values=<0.05.
(§9) Animals were dosed according to the schedule on Table 7-1. The study was terminated on Day 28.

CTG-0808 = test: Champions TumorGraft NSCLC PDX efficacy, model CTG-0808; assay type: in vivo, Mus musculus
Protocol: as §1, §2, §3, §4, §5, §6, §7, §8
Animals were dosed according to the schedule on Table 7-1. The Vehicle Control reached endpoint on Day 14 and the study was terminated on Day 28.

CTG-2540 = test: Champions TumorGraft NSCLC PDX efficacy, model CTG-2540; assay type: in vivo, Mus musculus
Protocol: as §1, §2, §3, §4, §5, §6, §7, §8, §9

[1] = tested on: 15 low-passage Champions TumorGraft models of human non-small cell lung cancer; test: Panel of 15 NSCLC patient derived tumor xenografts (Champions PDX indication screen), overall; assay type: in vivo, Mus musculus; settings: weekly 3 mpk
Protocol: This study was conducted to evaluate the in vivo antitumor activity of BT5528 as monotherapy in 15 low-passage Champions TumorGraft® models.
as §1, with “week. […]” for “week.”
Stock mice were implanted with tumor cells from Champions TumorGraft® models CTG-0160, CTG-0170, CTG-0178, CTG-0192, CTG-0363, CTG-0808, CTG-0838, CTG-0848, CTG-1212, CTG-1502, CTG-1535, CTG-2011, CTG-2393, CTG-2539 or CTG-2540. […] Tumor growth was monitored twice a week using digital calipers and the tumor volume (TV) was calculated using the formula (0.52×[length×width^2]). […] After the initiation of dosing on Day 0, animals were weighed twice per week using a digital scale and TV was measured twice per week and also on the final day of study. […]

[2] = CTG-0363, 3 mg/kg IV Q7Dx4, Day 0-28
[3] = CTG-0808, 3 mg/kg IV Q7Dx4, Day 0-28
[4] = CTG-2540, 3 mg/kg IV Q7Dx4, Day 0-28

With `CC[C@H](C)[C@@H]([C@@H](CC(=O)N1CCC[C@H]1[C@H](OC)[C@@H](C)C(=O)N[C@H](C)[C@@H](O)c1ccccc1)OC)N(C)C(=O)[C@@H](NC(=O)[C@H](C(C)C)N(C)C(=O)OCc1ccc(NC(=O)[C@H](CCCNC(N)=O)NC(=O)[C@@H](NC(=O)CCCC(=O)ON2C(=O)CCC2=O)C(C)C)cc1)C(C)C` [BT5528] (X1-V[Cit][PABC][NMeV]V[Dil][Dolaproine]-X2) the “anti-tumor activity (tumor size by caliper)” value (Panc033) was “significant anti-tumor activity from reduced tumor growth rate to decreasing tumor volumes”, the “mean body weight loss” value (CTG-0363; 3 mg/kg IV Q7Dx4) was “no mean body weight loss” and the “MTV (mean tumor volume)” value (CTG-0363; 3 mg/kg IV Q7Dx4, Day 28) was 1609±18 mm^3. The TGI (CTG-0363; 3 mg/kg IV Q7Dx4, Day 28) was 26%, the “# CR (complete responders)” value (CTG-0363; [2]) was 0/0/0 and the “# PR (partial responders)” value (CTG-0363; [2]) was 0/0/0. For the same compound, the “# TFS (tumor-free survivors)” value (CTG-0363; [2]) was 0/0/0, the “% TGI” value (CTG-0363; CTG-0363, 3 mg/kg IV Q7Dx4, Day 28) was 26% and the “Day 28 Tumor Volume Mean TV ± SEM” value (CTG-0363; CTG-0363, BT5528 3 mg/kg IV Q7Dx4, Day 28, n=2) was 1609 ± 18 mm^3. For the same compound, the “MTV (mean tumor volume)” value (CTG-0808; 3 mg/kg IV Q7Dx4, Day 14) was 541±4 mm^3, the TGI (CTG-0808; 3 mg/kg IV Q7Dx4, Day 14) was 76% and the “# CR (complete responders)” value (CTG-0808; [3]) was 0/0/0. For the same compound, the “# PR (partial responders)” value (CTG-0808; [3]) was 0/0/0, the “# TFS (tumor-free survivors)” value (CTG-0808; [3]) was 0/0/0 and the “% TGI” value (CTG-0808; CTG-0808, 3 mg/kg IV Q7Dx4, Day 14) was 76%. For the same compound, the “Day 14 Tumor Volume Mean TV ± SEM” value (CTG-0808; CTG-0808, BT5528 3 mg/kg IV Q7Dx4, Day 14, n=2) was 541 ± 4 mm^3, the “mean body weight loss” value (CTG-2540; 3 mg/kg IV Q7Dx4) was “no mean body weight loss” and the “MTV (mean tumor volume)” value (CTG-2540; 3 mg/kg IV Q7Dx4, Day 28) was 692±156 mm^3. The TGI (CTG-2540; 3 mg/kg IV Q7Dx4, Day 28) was 75%, the “# CR (complete responders)” value (CTG-2540; [4]) was 0/0/0 and the “# PR (partial responders)” value (CTG-2540; [4]) was 0/0/0. For the same compound, the “# TFS (tumor-free survivors)” value (CTG-2540; [4]) was 0/0/0, the “% TGI” value (CTG-2540; CTG-2540, 3 mg/kg IV Q7Dx4, Day 28) was 75% and the “Day 28 Tumor Volume Mean TV ± SEM” value (CTG-2540; CTG-2540, BT5528 3 mg/kg IV Q7Dx4, Day 28, n=2) was 692 ± 156 mm^3. For the same compound, the “models with tumor growth inhibition of 50% or more” value [1] was 10 out of 15.
